According to US12023360B2, “Composition and methods of screening” (OPTIBIOTIX LIMITED, priority 2013, dated 2024):

Key:
Format in all cases: cell-based
[1] = test system: Bifidobacteria; assay: Anaerobic culture utilisation, FISH enumeration at 24 h: Bifidobacteria; conditions: inoculum 6.85
Experimental: (§1) In these experiments, anaerobic cultures were tested to evaluate the in vitro utilisation of a novel Lactobacillus reuteri galactooligosaccharide by monitoring the populations of gut bacterial groups at 24 hours using fluorescent in situ hybridisation, and short-chain fatty acid (SCFA). Fructooligosaccharides (FOS), melibiose and raffinose were used as reference carbohydrates.

[2] = test system: Bacteroides; assay: Anaerobic culture utilisation, FISH enumeration at 24 h: Bacteroides; conditions: inoculum 7.98
Experimental: as §1

[3] = test system: Lactobacilli; assay: Anaerobic culture utilisation, FISH enumeration at 24 h: Lactobacilli; conditions: inoculum 7.15
Experimental: as §1

[4] = test system: Clostridia; assay: Anaerobic culture utilisation, FISH enumeration at 24 h: Clostridia; conditions: inoculum 7.55
Experimental: as §1

[5] = test system: E. coli; assay: Anaerobic culture utilisation, FISH enumeration at 24 h: E. coli; conditions: inoculum 8.14
Experimental: as §1

[6] = test system: Eubacteria; assay: Anaerobic culture utilisation, FISH enumeration at 24 h: Eubacteria; conditions: inoculum 8.06
Experimental: as §1

Row | Compound | Bifidobacteria, 24 [1] | Bacteroides, 24 [2] | Lactobacilli, 24 [3] | Clostridia, 24 [4] | E. coli, 24 [5] | Eubacteria, 24 [6]
1 | OC[C@H]1O[C@H](OCC2O[C@@H](O)[C@H](O)[C@@H](O)[C@@H]2O)[C@H](O)[C@@H](O)[C@H]1O (stereo partly shown) [Melibiose, melibiose] | 7.33 | 7.9 | 7.43 | 7.65 | 7.66 | 7.84
2 | OC[C@H]1O[C@H](OC[C@H]2O[C@H](O[C@]3(CO)O[C@H](CO)[C@@H](O)[C@@H]3O)[C@H](O)[C@@H](O)[C@@H]2O)[C@H](O)[C@@H](O)[C@H]1O [Raffinose, raffinose] |  |  |  | 7.81 |  | 
